Reference: US11459546B2, “Method for producing somatic cell, somatic cell, and composition” (Kyoto Prefectural Public University Corporation, priority 2016, dated 2022)

Columns and labels:
human fibroblasts [1] = test: Induction of osteoblast from human fibroblast, von Kossa staining (Example C); type: cell-based; conditions: from comparison of combinations of Table 6, FIG. 14
Protocol: As materials, human fibroblasts were purchased from DS Pharma Biomedical Co., Ltd. The fibroblasts were derived from a skin of a human. The human fibroblasts were seeded on 35 mm dishes at a rate of 5×10^4 cells per a dish, and cultured in DMEM medium (Gibco) to which 10% fetal bovine serum (FBS), 100 U/ml penicillin and 100 μg/ml streptomycin under a condition at 37° C. and 5% CO2 were added to become confluent. Note that the DMEM refers to a Dulbecco's Modified Eagle Medium. The medium in the dish containing the human fibroblasts was exchanged to a RPMI1640 with L-Glutamine and Phenol Red (Wako Pure Chemical Industries, Ltd.) containing an osteoblast-inducer reagent (Takara Bio Inc.), and a low molecular weight compound added according to Table 1. Subsequently, the cells were cultured under the condition at 37° C. and 5% CO2 while exchanging the medium to the medium having the same composition every 3 days. The details of the compounds listed in Table 6 are as aforementioned in the present specification. As a result of culturing human fibroblasts according to the above (2), osteoblast-like cells appeared 7 days after the onset of culturing. Twenty-one days after the onset of culturing, the cells were subjected to von Kossa staining according to a conventional method, to evaluate the presence or absence of calcium deposition. In the figure, the upper pictures show the results of von Kossa staining, and the lower pictures present phase-contrast microscopic images in the same visual fields as of the upper pictures.

human fibroblasts [2] = test: Induction of chondrocyte from human fibroblast, Alcian Blue staining (Example D); type: cell-based; conditions: from comparison of combinations of Table 7, FIG. 15
Protocol: As materials, human fibroblasts were purchased from DS Pharma Biomedical Co., Ltd. The fibroblasts were derived from a skin of a human.
The human fibroblasts were seeded on 35 mm dishes at a rate of 5×10^4 cells per a dish, and cultured in DMEM medium (Gibco) to which 10% fetal bovine serum (FBS), 100 U/ml penicillin and 100 μg/ml streptomycin under a condition at 37° C. and 5% CO2 were added to become confluent. Note that the DMEM refers to a Dulbecco's Modified Eagle Medium.
The medium in the dish containing the human fibroblasts was exchanged to a DMEM (Thermo Fisher Scientific, Inc.) containing Insulin-Transferrin-Selenium (Thermo Fisher Scientific, Inc., final concentration: 1%), ascorbic acid-2-phosphate (Wako Pure Chemical Industries, Ltd., final concentration: 50 μg/ml), dexamethasone (Wako Pure Chemical Industries, Ltd., final concentration: 0.1 μM), TGF-β3 (PeproTech, Inc., final concentration: 10 ng/ml), L-proline (Nacalai Tesque, final concentration: 40 μg/ml), Antibiotic-Antimycotic (Thermo Fisher Scientific, Inc., final concentration: 1×), and a low molecular weight compound added according to Table 1. Subsequently, the cells were cultured under the condition at 37° C. and 5% CO2 while exchanging the medium to the medium having the same composition every 3 days. The details of the compounds listed in Table 7 are as aforementioned in the present specification.
As a result of culturing human fibroblasts according to Example (2), chondrocyte-like cells appeared 7 days after the onset of culturing. Twenty-one days after the onset of culturing, the cells were subjected to Alcian Blue staining according to a conventional method, to evaluate the presence or absence of acid polysaccharides which are a cartilage matrix. In the figure, the upper pictures show the results of Alcian Blue staining, and the lower pictures present phase-contrast microscopic images in the same visual fields as of the upper pictures.

human fibroblasts [3] = test: Induction of cardiomyocyte from human fibroblast, cTnT immunostaining (Example F); type: cell-based; conditions: from comparison of combinations of Table 9, FIG. 17
Protocol: (§1) As materials, human fibroblasts were purchased from DS Pharma Biomedical Co., Ltd. The fibroblasts were derived from a skin of a human. The human fibroblasts were seeded on 35 mm dishes at a rate of 8×10^4 cells per a dish, and cultured in DMEM high glucose medium (Gibco) to which 10% fetal bovine serum (FBS), 100 U/ml penicillin and 100 μg/ml streptomycin under a condition at 37° C. and 5% CO2 were added for 2 days. Note that the DMEM refers to a Dulbecco's Modified Eagle Medium. […] Subsequently, the cells were cultured under the condition at 37° C. and 5% CO2 while exchanging the medium to the medium having the same composition every 3 days. The details of the compounds listed in Table 9 are as aforementioned in the present specification. As a result of culturing the human fibroblasts in accordance with the above (2), shrinking or beating single cells or small cell masses were recognized 8 days after the onset of culturing. Twenty-one or more days after the onset of culturing, a large number of shrinking or beating cardiomyocyte-like masses were observed. Twenty-one days after the onset of culturing, the cells were immobilized with 2% paraformaldehyde, and then immunostained. For staining, an anti-cTnT antibody (ab10214, Abcam PLC; diluted 200-fold) was used. […] The lower pictures show phase-contrast microscopic images in the same visual fields as of the upper pictures.

human fibroblasts [4] = test: Induction of brown adipocyte from human fibroblast, UCP1 immunostaining (Example A); type: cell-based; conditions: from comparison of combinations of Table 1, FIG. 1
Protocol: as §1, with “(Wako Pure Chemical Industries, Ltd.)” for “(Gibco)”, “1” for “9”, “adipocyte-like” for “shrinking or beating single”, “appeared 6” for “or small cell masses were recognized 8”, “culturing.” for “culturing. Twenty-one or more days after the onset of culturing, a large number of shrinking or beating cardiomyocyte-like masses were observed.”, “immunostained.” for “immunostained. For staining, an anti-cTnT antibody (ab10214, Abcam PLC; diluted 200-fold) was used.”

human fibroblasts [5] = test: Induction of neural cell from human fibroblast, βIII-tubulin immunostaining (Example E); type: cell-based; conditions: from comparison of combinations of Table 8, FIG. 16
Protocol: As materials, human fibroblasts were purchased from DS Pharma Biomedical Co., Ltd. The fibroblasts were derived from a skin of a human. The human fibroblasts were seeded on 35 mm dishes at a rate of 8×10^4 cells per a dish, and cultured in DMEM high glucose medium (Wako Pure Chemical Industries, Ltd.) to which 10% fetal bovine serum (FBS), 100 U/ml penicillin and 100 μg/ml streptomycin under a condition at 37° C. and 5% CO2 were added for 2 days. Note that the DMEM refers to a Dulbecco's Modified Eagle Medium. […] Subsequently, the cells were cultured under the condition at 37° C. and 5% CO2 while exchanging the medium to the medium having the same composition every 3 days. The details of the compounds listed in Table 8 are as aforementioned in the present specification. As a result of culturing the human fibroblasts in accordance with the above (2), nerve-like projection structures were recognized 5 days after the onset of culturing. Fourteen days after the onset of culturing, the cells were immobilized with 2% paraformaldehyde, and then immunostained. For staining, an anti-βIII-tubulin antibody (MMS-435P, Covance; diluted 1000-fold) was used. […] The lower pictures show phase-contrast microscopic images in the same visual fields as of the upper pictures.

[6] = system: β adrenergic receptor signaling pathway in compound-induced brown adipocytes; test: Isoproterenol or forskolin treatment of compound-induced brown adipocytes, mRNA by QRT-PCR; type: cell-based, human; conditions: for expression of Cited1 after treatment / expression of Ckmt1 after treatment: 3 or 6 hours, FIGS. 12 C and D
Protocol: For the purpose of quantifying gene expression, the whole RNA was extracted from the fibroblasts treated with each compound, using the RNeasy Mini kit (QIAGEN N.V). As a control, a fibroblast was cultured in parallel, in the adipocyte medium. The cells were treated with 0.1 μM, 1 μM and 10 μM isoproterenol or forskolin for 3 hours or 6 hours, and then the whole RNA was extracted from the brown adipocytes induced with the compound and the control cell. The whole RNA was reversely transferred with ReverTraAce® PCR RT Master Mix with gDNA Remover (TOYOBO CO., LTD.), and then subjected to a real-time PCR analysis using Power SYBR Green PCR Master Mix (Thermo Fisher Scientific, Inc.). For one standard, 3 reactions were carried out under the following condition: 40 cycles of reactions at 95° C. for 10 minutes, at 95° C. for 15 seconds, and at 60° C. for 60 seconds. All results were standardized by the amount of the Tbp mRNA.
Thermogenesis through the Ucp1 is regulated through the sympathetic nervous system and the […] receptor signaling pathway in the brown adipocytes. For the purpose of evaluating the thermogenetic ability in the […] induced with the compounds, the brown adipocytes were treated with isoproterenols (β adrenergic receptor agonist) at 3 different concentrations for 3 hours or 6 hours, and then the Ucp1 mRNA was quantified (FIG. 12 A).

SMILES | role of the component for differentiation of the osteoblasts (human fibroblasts [1]) | role of the component for differentiation of the chondrocytes (human fibroblasts [2]) | role of the component for differentiation into cardiomyocytes (human fibroblasts [3]) | further results
Cc1c[nH]c(-c2cnc(NCCNc3ccc(C#N)cn3)nc2-c2ccc(Cl)cc2Cl)n1 [CHIR99021] | important | important | – | –
c1ccc2c(-c3cnn4cc(-c5ccc(N6CCNCC6)cc5)cnc34)ccnc2c1 [LDN193189] | important | important | – | –
O=C(NOC[C@H](O)CO)c1ccc(F)c(F)c1Nc1ccc(I)cc1F [PD0325901] | should not be added | not contained | important | –
Cc1cccc(-c2n[nH]cc2-c2ccc3ncccc3n2)n1 [Repsox] | – | – | important | –
NC(=O)c1ccc(-c2nc(-c3ccc4c(c3)OCO4)c(-c3ccccn3)[nH]2)cc1 [SB431542] | important | important | – | role of the component for differentiation into brown adipocytes (human fibroblasts [4]): preferable
c1cc(-c2cnn3cc(-c4ccc(OCCN5CCCCC5)cc4)cnc23)ccn1 [dorsomorphin, Dorsomorphin] | – | not contained | important | role of the component for differentiation into brown adipocytes (human fibroblasts [4]): preferable; role of the component for differentiation into neural cells (human fibroblasts [5]): important
C=C[C@@]1(C)CC(=O)[C@]2(O)[C@@]3(C)[C@@H](O)CCC(C)(C)[C@@H]3[C@H](O)[C@H](OC(C)=O)[C@@]2(C)O1 [forskolin, Forskolin] | important | important | important | Ucp1 expression, cells treated for 6 hours versus 3 hours ([6]; 0.1, 1 or 10 μM, FIG. 12 B): more enhanced; expression of Cited1 after treatment [6]: no significant change; expression of Ckmt1 after treatment [6]: no significant change
CC(C)NCC(O)c1ccc(O)c(O)c1 (stereo not drawn) [isoproterenol, Isoproterenol] | – | – | – | Ucp1 mRNA, 3-hour treatment ([6]; 0.1, 1 or 10 μM, versus untreated cells, FIG. 12): slightly increased; expression of Cited1 after treatment [6]: no significant change; expression of Ckmt1 after treatment [6]: no significant change
